We go through 8 molecules from patent publication US8168592B2 (Amgen Inc., priority 2005, dated 2012).

Data set [1] is described as follows: rat plasma (10% rat plasma in the legend of FIG. 2). The conditions noted are these: room temperature, up to 1 hour.
The nature of data set [2]: monkey pharmacokinetic studies. To be noted: cynomolgus monkey, in vivo, iv, 6 mg/kg.
Experimental: Monkey pharmacokinetic studies. […] A complete blood chemistry panel was performed on each monkey prior to each study day to obtain baseline values and ensure hematological recovery. A catheter was placed in the cephalic vein of three male Cynomolgus monkeys (Macaca fascicularis) for blood sampling during the study. For the intravenous (iv) leg of the study, a catheter was also placed in a saphenous vein for infusion of test compound. On each study day, the monkeys were placed in restraining chairs for the first 4 h of the study to facilitate drug administration and blood sampling. For administration of antagonist, each monkey received solubilized peptide (dose and SEQ ID listed in Table 11 below) either as a 30-min intravenous infusion (4 mL/kg/h) or as a single subcutaneous bolus (approx. 1.0 mL/animal). Blood samples were collected from each study animal at various times during and after drug administration, plasma samples (100 μL) were isolated by centrifugation and stored at −70° C. until analysis. For monkeys receiving intravenous infusion, such a sample was also taken at 20 min during the infusion.
Data set [3] can be described thus: solubility in aqueous conjugation buffers. The class given is physicochemical. As to the method: Co-solvent mediated conjugation of vehicle to CGRP peptide antagonists. […] In an attempt to better solubilize these less soluble peptides during the conjugation reaction, and thereby improve conjugate yields, a variety of alcohol co-solvents were tested in the conjugation reaction.

Data set [4] has as its target T1, CGRP1 receptor (Rattus norvegicus, UniProt Q63118+Q9JJ74).
T1 construct: from tissue; host or cells: living anaesthetised rat, abdominal skin
The experiment in a line: laser Doppler blood flowmetry assay (hαCGRP-induced skin blood flow). The class given is in vivo. To be noted: i.v., pre-treatment 5 minutes. Here is the method: Methods. An automated laser Doppler blood flowmetry device is used (MoorLDI®; Moor Instrument, Devon, UK). The device was turned on prior to the start of experiments and allowed to warm up for 20 minutes. Blood flow data (in FLUX) were read from software records (see below).
For each rat, the experimental procedure was performed within a single day and was each rat was sacrificed on the same day immediately after the experiment was over. On an experiment day, each rat was weighed and administered 1 ml/kg (intramuscular injection in right leg) of an anesthetic cocktail consisting of Ketamine, Xylazine and PBS (5:3:2). […] A small dot was placed near the center of the abdomen using a marker. The animal was then ready for the experiment.
Approximately 20 min after the injection of the anesthetic cocktail, baseline blood flow readings were collected for each animal. Each rat was placed under the laser Doppler scanning device, matching the laser with the marker dot on the abdomen. Using the device's software package, the device was activated and the surface of the abdomen was scanned for 1 min with the laser. The scan area was 4 cm×4 cm. […]
In some cases, plasma IC50 values were calculated by performing least squares linear regression on log plasma concentration values (nM) vs. % change in blood flow values calculated for individual rats.

Data set [5] is described as follows: in vitro stability in 10% human plasma, LC-MS/MS. Format: in vitro ADME. To be noted: room temperature, 100 ng/ml. As to the method:
Consequently, the stability of select, non-PEGylated analogs was evaluated in vitro in the presence of 10% rat or human plasma. Briefly, samples of each peptide were diluted to 100 ng/ml into PBS containing 10% of rat or human plasma. Each sample was then incubated at room temperature and analyzed by LC-MS/MS to quantitate the intact peptide remaining at select time points over 6 hours.

The nature of data set [6]: in vitro stability in 5% mouse plasma, sandwich ELISA.
Experimental: Peptide samples at 2 mg/ml in PBS were spiked with 5% mouse plasma and analyzed by sandwich ELISA (as described in Example 3 herein above) over 48 hours at room temperature. Peptide integrity was determined by sandwich ELISA requiring intact peptide termini.
The nature of data set [7]: 100% human plasma. The conditions noted are these: room temperature, up to 4 hour.
Data set [8] can be described thus: 100% Cynomolgus monkey plasma. The conditions noted are these: room temperature, up to 4 hour.
Data set [9] can be described thus: monkey plasma during 30 minutes of intravenous infusion. The conditions noted are these: Cynomolgus monkeys (Macaca fascicularis), up to 20 min during the infusion.

Entries after “also recorded” stand apart in the source; their conditions may differ.

The MRT is the average time that molecules of a dose stay in the body. What is called Vd is the apparent volume that relates the amount in the body to the concentration in plasma or blood. As usually defined, the clearance is the volume of plasma or blood freed of the substance per unit of time. Broadly, the half-life is the time in which the quantity being followed falls by half. Usually amount remaining stands for the share of the starting amount still present when the sample was taken.

T1 sequence (Q63118 24-464): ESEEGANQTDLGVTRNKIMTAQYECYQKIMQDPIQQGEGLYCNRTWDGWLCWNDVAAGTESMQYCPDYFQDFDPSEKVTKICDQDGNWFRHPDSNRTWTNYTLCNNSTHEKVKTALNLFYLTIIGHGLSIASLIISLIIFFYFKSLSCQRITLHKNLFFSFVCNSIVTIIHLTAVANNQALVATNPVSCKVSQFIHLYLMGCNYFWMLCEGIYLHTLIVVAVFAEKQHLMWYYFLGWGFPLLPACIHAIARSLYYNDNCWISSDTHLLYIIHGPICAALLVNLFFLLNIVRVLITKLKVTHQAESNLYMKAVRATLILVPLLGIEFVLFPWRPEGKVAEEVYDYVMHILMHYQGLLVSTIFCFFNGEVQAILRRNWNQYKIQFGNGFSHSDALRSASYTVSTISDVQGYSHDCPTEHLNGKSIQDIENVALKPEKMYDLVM
T1 sequence (Q9JJ74 27-148): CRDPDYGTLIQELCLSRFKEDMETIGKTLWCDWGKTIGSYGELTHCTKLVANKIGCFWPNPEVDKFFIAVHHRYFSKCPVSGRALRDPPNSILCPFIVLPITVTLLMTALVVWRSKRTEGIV

In the case of Ac-WVTHRLAGLLSRSGGVVRKNFVPTDVGPFAF-NH2, in data set [1], the cleaved bond result was “L16-S17, major; also recorded: S17-R18, major; also recorded: R18-S19, major”.
As to `CC(=O)N[C@@H](Cc1c[nH]c2ccccc12)C(=O)N[C@H](C(=O)N[C@H](C(=O)N[C@@H](Cc1c[nH]cn1)C(=O)N[C@@H](CCCNC(N)=O)C(=O)N[C@@H](CC(C)C)C(=O)N[C@@H](C)C(=O)NCC(=O)N[C@@H](CC(C)C)C(=O)N[C@@H](CC(C)C)C(=O)N[C@@H](CO)C(=O)N[C@@H](CCCNC(N)=O)C(=O)N[C@@H](CO)C(=O)NCC(=O)NCC(=O)N[C@H](C(=O)N[C@H](C(=O)N[C@@H](CCCCNC(=N)N)C(=O)N[C@@H](CCCCN)C(=O)N[C@@H](CC(N)=O)C(=O)N[C@@H](Cc1ccccc1)C(=O)N[C@H](C(=O)N1CCC[C@H]1C(=O)N[C@H](C(=O)N[C@@H](CC(=O)O)C(=O)N[C@H](C(=O)NCC(=O)N1[C@H](C(=O)N[C@@H](Cc2ccccc2)C(=O)N[C@@H](C)C(=O)N[C@@H](Cc2ccccc2)C(N)=O)C[C@@H]2CCCC[C@@H]21)C(C)C)[C@@H](C)O)C(C)C)C(C)C)C(C)C)[C@@H](C)O)C(C)C` [SEQ ID NO: 658], in data set [2], the AUC0-inf is 17000 ng·h/mL, the AUC0-t came to 16900 ng·h/mL, the mean residence time (MRT) is 25.2 min and the distribution volume (Vd) was determined as 0.174 L/kg. Also, in data set [2], the clearance is 6.65 mL/min/kg and the half-life was 48 min.
Take `CC(=O)N[C@@H](Cc1c[nH]c2ccccc12)C(=O)N[C@H](C(=O)N[C@H](C(=O)N[C@@H](Cc1cnc[nH]1)C(=O)N[C@@H](CCCNC(N)=O)C(=O)N[C@@H](CC(C)C)C(=O)N[C@@H](C)C(=O)NCC(=O)N[C@@H](CC(C)C)C(=O)N[C@@H](CC(C)C)C(=O)N[C@@H](CO)C(=O)N[C@@H](CCCNC(N)=O)C(=O)N[C@@H](CO)C(=O)NCC(=O)NCC(=O)N[C@H](C(=O)N[C@H](C(=O)N[C@@H](CCCCNC(=N)N)C(=O)N[C@@H](CCCCN)C(=O)N[C@@H](CC(N)=O)C(=O)N[C@@H](Cc1ccccc1)C(=O)N[C@H](C(=O)N1CCC[C@H]1C(=O)N[C@H](C(=O)N[C@@H](CC(=O)O)C(=O)N[C@H](C(=O)NCC(=O)N1CCC[C@H]1C(=O)N[C@@H](Cc1ccccc1)C(=O)N[C@@H](C)C(=O)N[C@@H](Cc1ccccc1)C(N)=O)C(C)C)[C@@H](C)O)C(C)C)C(C)C)C(C)C)[C@@H](C)O)C(C)C` [SEQ ID NO:739]: in [3], the solubility in words result is “relatively insoluble”.
The same measure, in the same setting: as for `CC(=O)N[C@@H](Cc1c[nH]c2ccccc12)C(=O)N[C@H](C(=O)N[C@H](C(=O)N[C@@H](Cc1cnc[nH]1)C(=O)N[C@@H](CCCN=C(N)N)C(=O)N[C@@H](CC(C)C)C(=O)N[C@@H](C)C(=O)NCC(=O)N[C@@H](CC(C)C)C(=O)N[C@@H](CC(C)C)C(=O)N[C@@H](CO)C(=O)N[C@@H](CCCN=C(N)N)C(=O)N[C@@H](CO)C(=O)NCC(=O)NCC(=O)N[C@H](C(=O)N[C@H](C(=O)N[C@@H](CCCN=C(N)N)C(=O)N[C@@H](CCCCN)C(=O)N[C@@H](CC(N)=O)C(=O)N[C@@H](Cc1ccccc1)C(=O)N[C@H](C(=O)N1CCC[C@H]1C(=O)N[C@H](C(=O)N[C@@H](CC(=O)O)C(=O)N[C@H](C(=O)NCC(=O)N1CCC[C@H]1C(=O)N[C@@H](Cc1ccccc1)C(=O)N[C@@H](C)C(=O)N[C@@H](Cc1ccccc1)C(N)=O)C(C)C)[C@@H](C)O)C(C)C)C(C)C)C(C)C)[C@@H](C)O)C(C)C` [SEQ. ID NO: 7], the entry is “relatively soluble”.
As for `CC(=O)N[C@@H](Cc1c[nH]c2ccccc12)C(=O)N[C@H](C(=O)N[C@H](C(=O)N[C@@H](Cc1c[nH]cn1)C(=O)N[C@@H](CCCNC(N)=O)C(=O)N[C@@H](CC(C)C)C(=O)N[C@@H](C)C(=O)NCC(=O)N[C@@H](CC(C)C)C(=O)N[C@@H](CC(C)C)C(=O)N[C@@H](CO)C(=O)N[C@@H](CCCNC(N)=O)C(=O)N[C@@H](CO)C(=O)NCC(=O)NCC(=O)N[C@H](C(=O)N[C@H](C(=O)N[C@@H](CCCCNC(=N)N)C(=O)N[C@@H](CCCCN)C(=O)N[C@@H](CC(N)=O)C(=O)N[C@@H](Cc1ccccc1)C(=O)N[C@H](C(=O)N1CCC[C@H]1C(=O)N[C@H](C(=O)N[C@@H](CC(=O)O)C(=O)N[C@H](C(=O)NCC(=O)N1CCC[C@H]1C(=O)N[C@@H](Cc1ccccc1)C(=O)N[C@@H](C)C(=O)N[C@@H](Cc1ccccc1)C(N)=O)C(C)C)[C@@H](C)O)C(C)C)C(C)C)C(C)C)[C@@H](C)O)C(C)C` [Compound 739], the “Efficacy observed (%) (at highest dose tested)” value in data set [4] (6 mg/kg) is on record as 100%.
With `CC(=O)N[C@@H](Cc1c[nH]c2ccccc12)C(=O)N[C@H](C(=O)N[C@H](C(=O)N[C@@H](Cc1c[nH]cn1)C(=O)N[C@@H](CCCNC(=N)N)C(=O)N[C@@H](CC(C)C)C(=O)N[C@@H](C)C(=O)NCC(=O)N[C@@H](CC(C)C)C(=O)N[C@@H](CC(C)C)C(=O)N[C@@H](CO)C(=O)N[C@@H](CCCNC(=N)N)C(=O)N[C@@H](CO)C(=O)NCC(=O)NCC(=O)N[C@H](C(=O)N[C@H](C(=O)N[C@@H](CCCNC(=N)N)C(=O)N[C@@H](CCCCN)C(=O)N[C@@H](CC(N)=O)C(=O)N[C@@H](Cc1ccccc1)C(=O)N[C@H](C(=O)N1CCC[C@H]1C(=O)N[C@H](C(=O)N[C@@H](CC(=O)O)C(=O)N[C@H](C(=O)NCC(=O)N1CCC[C@H]1C(=O)N[C@@H](Cc1ccccc1)C(=O)N[C@@H](C)C(=O)N[C@@H](Cc1ccccc1)C(N)=O)C(C)C)[C@@H](C)O)C(C)C)C(C)C)C(C)C)[C@@H](C)O)C(C)C` [Compound 808], in data set [4] (0.6 mg/kg), the “Efficacy observed (%) (at highest dose tested)” value was 100%.
With `CC(=O)N[C@@H](Cc1c[nH]c2ccccc12)C(=O)N[C@H](C(=O)N[C@H](C(=O)N[C@@H](Cc1cnc[nH]1)C(=O)N[C@@H](CCCN=C(N)N)C(=O)N[C@@H](CC(C)C)C(=O)N[C@@H](C)C(=O)NCC(=O)N[C@@H](CC(C)C)C(=O)N[C@@H](CC(C)C)C(=O)N[C@@H](CO)C(=O)N[C@@H](CCCN=C(N)N)C(=O)N[C@@H](CO)C(=O)NCC(=O)NCC(=O)N[C@H](C(=O)N[C@H](C(=O)N[C@@H](CCCN=C(N)N)C(=O)N[C@@H](CCCCN)C(=O)N[C@@H](CC(N)=O)C(=O)N[C@@H](Cc1ccccc1)C(=O)N[C@H](C(=O)N1CCC[C@H]1C(=O)N[C@H](C(=O)N[C@@H](CC(=O)O)C(=O)N[C@H](C(=O)NCC(=O)N1CCC[C@H]1C(=O)N[C@@H](Cc1ccccc1)C(=O)N[C@@H](C)C(=O)N[C@@H](Cc1ccccc1)C(N)=O)C(C)C)[C@@H](C)O)C(C)C)C(C)C)C(C)C)[C@@H](C)O)C(C)C` [SEQ ID NO: 7], in [5] (0 h), the “% Remaining” value worked out at 100.0%. Besides, in [5] (0.17 h), the fraction remaining at 0.17 h, 100 ng/ml was determined as 60.3%. In data set [5] (0.5 h), this molecule had a fraction remaining at 0.5 h, 100 ng/ml of 13.8%. In [5] (1 h), this molecule yielded an amount remaining at 1 h, 100 ng/ml of 4.9%. Further, in [5] (2 h), the share remaining at 2 h, 100 ng/ml is 0%. The fraction remaining at 3 h, 100 ng/ml in data set [5] (3 h) stood at 0%. For the same molecule, the fraction remaining at 4 h, 100 ng/ml in [5] (4 h) amounted to 0%. The fraction remaining at 5 h, 100 ng/ml in [5] (5 h) turned out to be 0%. Besides, the fraction remaining at 6 h, 100 ng/ml in data set [5] (6 h) was determined as 0%. In data set [6], this molecule yielded a recovery at 0 h, 2 mg/ml of 112 ± 1.8%; a recovery at 4 h, 2 mg/ml of 46.1 ± 60.1%; a recovery at 24 h, 2 mg/ml of 2.51 ± 0.573%; a recovery at 48 h, 2 mg/ml of 1.81 ± 0.754%.
Regarding “Ac-WVTH[Cit]LAGLLS[Cit]SGGVV[hArg]KNFVPTDVG[Oic]FAF-NH2”, the fragment found entry in data set [7] is “W7-hR24, major”; in data set [8], “W7-K25, major”; in data set [9], “W7-T9, 20 min during the infusion; also recorded: T30-A36, 20 min during the infusion; also recorded: W7-N26, 20 min during the infusion; also recorded: T30-F37, 20 min during the infusion; also recorded: W7-hR24, 20 min during the infusion”.
